Starred links: 1 amine or outer side, 2 acyl side, 3 side chain; linkers in the order of their positions; H or OH if unused. Positions of bridges follow the written chain, without caps; N, C: chain ends. Non-standard residues stand in square brackets, D forms with d. Residues, ends and D or L forms follow the SMILES beside them. *: point of attachment. X80 = COCC[N+](C)(C)CCCCc1cn(-c2ccc(C[C@H](N[*:1])C(=O)[*:2])cc2)nn1; X51 = C[N+](C)(C)CCCc1cn(-c2ccc(C[C@H](N[*:1])C(=O)[*:2])cc2)nn1; Me3N+(CH2)2O(CH2)2O(CH2)2CO = C[N+](C)(C)CCOCCOCCC(=O)*; Trp(7-Me) = Cc1cccc2c(C[C@H](N)C(=O)O)c[nH]c12; Lys(Me3) = C[N+](C)(C)CCCC[C@H](N)C(=O)O; 2Nal = N[C@@H](Cc1ccc2ccccc2c1)C(=O)O; 3Pal = N[C@@H](Cc1cccnc1)C(=O)O; Lys(Me) = CNCCCC[C@H](N)C(=O)O; Chg = N[C@H](C(=O)O)C1CCCCC1; Pen = CC(C)(S)[C@H](N)C(=O)O; Thp = NC1(C(=O)O)CCOCC1; X3 = C[N+](C)(C)CCCCC*; Me2NCH2CH2 = CN(C)CC*; Sar = CNCC(=O)O
test: Exposed Polar Surface Area (EPSA); type: physicochemical; details: SFC on Chirex 3014 column; sample 1 mM DMSO stock; read-out: EPSA
Procedure, shortened: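 Polarity descriptor in Å² derived from retention time using 8 calibration standards re-run every 20 compounds. Duplicate injections of 1 mM DMSO stock; linear 5–60% modifier gradient (20 mM ammonium formate in MeOH) with CO2 at 4 mL/min, 35 °C, on a Chirex 3014 column.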

Row | EPSA [A^2] | SMILES
1 | 152 | CC(=O)N(C)CCCC[C@@H]1NC(=O)[C@H](Cc2c[nH]c3c(C)cccc23)NC(=O)[C@H]([C@@H](C)O)NC(=O)[C@H](CC(=O)N(C)C)NC(=O)[C@@H](NC(=O)CCOCCOCC[N+](C)(C)C)C(C)(C)SSC(C)(C)[C@@H](C(=O)N[C@@H](Cc2ccc(OCCCCC[N+](C)(C)C)cc2)C(=O)N[C@@H](Cc2ccc3ccccc3c2)C(=O)NC2(C(=O)N[C@@H](CCC(=O)N(C)C)C(=O)N[C@@H](CC(N)=O)C(=O)N[C@@H](Cc3cccnc3)C(=O)N(C)CC(=O)N(C)C)CCOCC2)NC1=O [compound 310, cPEG3aCO-Pen(3)-N(N(Me)2)-T-7MeW-K(NMeAC)-Pen(3)-TMAPF-2Nal-THP-Q(N(Me)2)-N-3Pya-Sar-CON(Me)2] ({Me3N+(CH2)2O(CH2)2O(CH2)2CO}-[Pen]D(NMe2)T[Trp(7-Me)][Lys(Me)](Ac)[Pen]Y(X3)[2Nal][Thp]E(NMe2)N[3Pal][Sar]-NMe2; disulfide 1-6)
2 | 151 | CC(=O)N(C)CCCC[C@H](NC(=O)C1(NC(=O)[C@H](Cc2ccc3ccccc3c2)NC(=O)[C@H](Cc2ccc(OCCCCC[N+](C)(C)C)cc2)NC(=O)[C@H]2NC(=O)[C@H](CCC(=O)N(C)C)NC(=O)[C@H](Cc3c[nH]c4c(C)cccc34)NC(=O)[C@H]([C@@H](C)O)NC(=O)[C@H](CC(=O)N(C)C)NC(=O)[C@@H](NC(=O)CCOCCOCC[N+](C)(C)C)C(C)(C)SSC2(C)C)CCOCC1)C(=O)N[C@@H](CC(N)=O)C(=O)N[C@@H](Cc1cccnc1)C(=O)N(C)CC(=O)N(C)C [compound 312, cPEG3aCO-Pen(3)-N(N(Me)2)-T-7MeW-Q(N(Me)2)-Pen(3)-TMAPF-2Nal-THP-K(NMeAC)-N-3Pya-Sar-CON(Me)2] ({Me3N+(CH2)2O(CH2)2O(CH2)2CO}-[Pen]D(NMe2)T[Trp(7-Me)]E(NMe2)[Pen]Y(X3)[2Nal][Thp][Lys(Me)](Ac)N[3Pal][Sar]-NMe2; disulfide 1-6)
3 | 154 | CC(=O)N(C)CCCC[C@@H]1NC(=O)[C@H](Cc2c[nH]c3c(C)cccc23)NC(=O)[C@H]([C@@H](C)O)NC(=O)[C@H](CC(=O)N(C)C)NC(=O)[C@@H](NC(=O)CCOCCOCC[N+](C)(C)C)C(C)(C)SSC(C)(C)[C@@H](C(=O)N[C@@H](Cc2ccc(OCCCCC[N+](C)(C)C)cc2)C(=O)N[C@@H](Cc2ccc3ccccc3c2)C(=O)NC2(C(=O)N[C@@H](C)C(=O)N[C@@H](CC(N)=O)C(=O)N[C@@H](Cc3cccnc3)C(=O)N(C)CC(=O)N(C)C)CCOCC2)NC1=O [compound 316, cPEG3aCO-Pen(3)-N(N(Me)2)-T-7MeW-K(NMeAc)-Pen(3)-TMAPF-2Nal-THP-A-N-3Pya-Sar-CON(Me)2] ({Me3N+(CH2)2O(CH2)2O(CH2)2CO}-[Pen]D(NMe2)T[Trp(7-Me)][Lys(Me)](Ac)[Pen]Y(X3)[2Nal][Thp]AN[3Pal][Sar]-NMe2; disulfide 1-6)
4 | 158 | CC(=O)NCCCC[C@@H]1NC(=O)[C@H](Cc2c[nH]c3c(C)cccc23)NC(=O)[C@H]([C@@H](C)O)NC(=O)[C@H](CC(N)=O)NC(=O)[C@@H](NC(=O)CCOCCOCC[N+](C)(C)C)C(C)(C)SSC(C)(C)[C@@H](C(=O)N[C@@H](Cc2ccc(OCCCCC[N+](C)(C)C)cc2)C(=O)N[C@@H](Cc2ccc3ccccc3c2)C(=O)NC2(C(=O)N[C@@H](C)C(=O)N[C@@H](CC(N)=O)C(=O)N[C@@H](Cc3cccnc3)C(=O)N(C)CC(=O)N(C)C)CCOCC2)NC1=O [compound 317, cPEG3aCO-Pen(3)-N-T-7MeW-K(Ac)-Pen(3)-TMAPF-2Nal-THP-A-N-3Pya-Sar-CON(Me)2] ({Me3N+(CH2)2O(CH2)2O(CH2)2CO}-[Pen]NT[Trp(7-Me)]K(Ac)[Pen]Y(X3)[2Nal][Thp]AN[3Pal][Sar]-NMe2; disulfide 1-6)
5 | 153 | CC(=O)N(C)CCCC[C@@H]1NC(=O)[C@H](Cc2c[nH]c3c(C)cccc23)NC(=O)[C@H]([C@@H](C)O)NC(=O)[C@H](CC(=O)N(C)C)NC(=O)[C@@H](NC(=O)CCOCCOCC[N+](C)(C)C)C(C)(C)SSC(C)(C)[C@@H](C(=O)N[C@@H](Cc2ccc(OCCN(C)C)cc2)C(=O)N[C@@H](Cc2ccc3ccccc3c2)C(=O)NC2(C(=O)N[C@@H](CCCCN(C)C(C)=O)C(=O)N[C@@H](CC(N)=O)C(=O)N[C@@H](Cc3cccnc3)C(=O)N(C)CC(=O)N(C)C)CCOCC2)NC1=O [compound 321, cPEG3aCO-Pen(3)-N(N(Me)2)-T-7MeW-K(NMeAc)-Pen(3)-AEF(N(Me)2)-2Nal-THP-K(NMeAc)-N-3Pya-Sar-CON(Me)2] ({Me3N+(CH2)2O(CH2)2O(CH2)2CO}-[Pen]D(NMe2)T[Trp(7-Me)][Lys(Me)](Ac)[Pen]Y(Me2NCH2CH2)[2Nal][Thp][Lys(Me)](Ac)N[3Pal][Sar]-NMe2; disulfide 1-6)
6 | 155 | CC(=O)N(C)CCCC[C@H](NC(=O)C1(NC(=O)[C@H](Cc2ccc3ccccc3c2)NC(=O)[C@H](Cc2ccc(OCCCCC[N+](C)(C)C)cc2)NC(=O)[C@H]2NC(=O)[C@H](CCCC[N+](C)(C)C)NC(=O)[C@H](Cc3c[nH]c4c(C)cccc34)NC(=O)[C@H]([C@@H](C)O)NC(=O)[C@H](CC(=O)N(C)C)NC(=O)[C@@H](NC(=O)CCOCCOCC[N+](C)(C)C)C(C)(C)SSC2(C)C)CCOCC1)C(=O)N[C@@H](CC(N)=O)C(=O)N[C@@H](Cc1cccnc1)C(=O)N(C)CC(=O)N(C)C [compound 329, cPEG3aCO-Pen(3)-N(N(Me)2)-T-7MeW-K(Me)3-Pen(3)-TMAPF-2Nal-THP-K(NMeAc)-N-3Pya-Sar-CON(Me)2] ({Me3N+(CH2)2O(CH2)2O(CH2)2CO}-[Pen]D(NMe2)T[Trp(7-Me)][Lys(Me3)][Pen]Y(X3)[2Nal][Thp][Lys(Me)](Ac)N[3Pal][Sar]-NMe2; disulfide 1-6)
7 | 155 | CC(=O)N(C)CCCC[C@@H]1NC(=O)[C@H](Cc2c[nH]c3c(C)cccc23)NC(=O)[C@H]([C@@H](C)O)NC(=O)[C@H](CC(=O)N(C)C)NC(=O)[C@@H](NC(=O)CCOCCOCC[N+](C)(C)C)C(C)(C)SSC(C)(C)[C@@H](C(=O)N[C@@H](Cc2ccc(-n3cc(CCC[N+](C)(C)C)nn3)cc2)C(=O)N[C@@H](Cc2ccc3ccccc3c2)C(=O)NC2(C(=O)N[C@@H](CCCCN(C)C(C)=O)C(=O)N[C@@H](CC(N)=O)C(=O)N[C@@H](Cc3cccnc3)C(=O)N(C)CC(=O)N(C)C)CCOCC2)NC1=O [compound 334, cPEG3aCO-Pen(3)-N(N(Me)2)-T-7MeW-K(NMeAc)-Pen(3)-F(4TzlTMA3)-2Nal-THP-K(NMeAc)-N-3Pya-Sar-CON(Me)2] ({Me3N+(CH2)2O(CH2)2O(CH2)2CO}-[Pen]D(NMe2)T[Trp(7-Me)][Lys(Me)](Ac)[Pen][X51][2Nal][Thp][Lys(Me)](Ac)N[3Pal][Sar]-NMe2; disulfide 1-6 (inferred))
8 | 152 | COCC[N+](C)(C)CCCCc1cn(-c2ccc(C[C@H](NC(=O)[C@H]3NC(=O)[C@H](CCCCN(C)C(C)=O)NC(=O)[C@H](Cc4c[nH]c5c(C)cccc45)NC(=O)[C@H]([C@@H](C)O)NC(=O)[C@H](CC(=O)N(C)C)NC(=O)[C@@H](NC(=O)CCOCCOCC[N+](C)(C)C)C(C)(C)SSC3(C)C)C(=O)N[C@@H](Cc3ccc4ccccc4c3)C(=O)NC3(C(=O)N[C@@H](CCCCN(C)C(C)=O)C(=O)N[C@@H](CC(N)=O)C(=O)N[C@@H](Cc4cccnc4)C(=O)N(C)CC(=O)N(C)C)CCOCC3)cc2)nn1 [compound 337, cPEG3aCO-Pen(3)-N(N(Me)2)-T-7MeW-K(NMeAc)-Pen(3)-F(4TzlDMA4mPEG)-2Nal-THP-K(NMeAc)-N-3Pya-Sar-CON(Me)2] ({Me3N+(CH2)2O(CH2)2O(CH2)2CO}-[Pen]D(NMe2)T[Trp(7-Me)][Lys(Me)](Ac)[Pen][X80][2Nal][Thp][Lys(Me)](Ac)N[3Pal][Sar]-NMe2; disulfide 1-6)
9 | 155 | CC(=O)N(C)CCCC[C@@H]1NC(=O)[C@H](Cc2c[nH]c3c(C)cccc23)NC(=O)[C@H]([C@@H](C)O)NC(=O)[C@H](CC(=O)N(C)C)NC(=O)[C@@H](NC(=O)CCOCCOCC[N+](C)(C)C)C(C)(C)SSC(C)(C)[C@@H](C(=O)N[C@@H](Cc2ccc(OCCCCC[N+](C)(C)C)cc2)C(=O)N[C@@H](Cc2ccc3ccccc3c2)C(=O)N[C@H](C(=O)N[C@@H](CCCCN(C)C(C)=O)C(=O)N[C@@H](CC(N)=O)C(=O)N[C@@H](Cc2cccnc2)C(=O)N(C)CC(=O)N(C)C)C2CCCCC2)NC1=O [compound 340, cPEG3aCO-Pen(3)-N(N(Me)2)-T-7MeW-K(NMeAc)-Pen(3)-TMAPF-2Nal-Chg-K(NMeAc)-N-3Pya-Sar-CON(Me)2] ({Me3N+(CH2)2O(CH2)2O(CH2)2CO}-[Pen]D(NMe2)T[Trp(7-Me)][Lys(Me)](Ac)[Pen]Y(X3)[2Nal][Chg][Lys(Me)](Ac)N[3Pal][Sar]-NMe2; disulfide 1-6)
10 | 162 | CC(=O)N[C@H](CCCNC(=N)N)C(=O)N[C@@H]1C(=O)N[C@@H](CC(=O)N(C)C)C(=O)N[C@@H]([C@@H](C)O)C(=O)N[C@@H](Cc2c[nH]c3c(C)cccc23)C(=O)N[C@@H](CCCCN(C)C(C)=O)C(=O)N[C@H](C(=O)N[C@@H](Cc2ccc(OCCCCC[N+](C)(C)C)cc2)C(=O)N[C@@H](Cc2ccc3ccccc3c2)C(=O)NC2(C(=O)N[C@@H](CCCCN(C)C(C)=O)C(=O)N[C@@H](CC(N)=O)C(=O)N[C@@H](Cc3cccnc3)C(=O)N(C)CC(=O)N(C)C)CCOCC2)C(C)(C)SSC1(C)C [compound 345, MeCO-r-Pen(3)-N(N(Me)2)-T-7MeW-K(NMeAc)-Pen(3)-TMAPF-2Nal-THP-K(NMeAc)-N-3Pya-Sar-CON(Me)2] (Ac-[dR][Pen]D(NMe2)T[Trp(7-Me)][Lys(Me)](Ac)[Pen]Y(X3)[2Nal][Thp][Lys(Me)](Ac)N[3Pal][Sar]-NMe2; disulfide 2-7)

Source: patent US20260022143A1, “Cyclic Peptide Inhibitors of IL-23” (JANSSEN PHARMACEUTICA NV, priority 2022, published 2026)
